Measured values reported in publication PMC11748363, “Antimicrobial and Antiproliferative Properties of 2‐Phenyl‐N‐(Pyridin‐2‐yl)acetamides” (Chemical Biology & Drug Design, 2025).
In brackets after ≈: the same amount, converted by molar mass. Like-named read-outs stand apart in the source and are kept apart here.

Columns and labels:
[1] = tested on: Aspergillus fumigatus ATCC 204305; assay: Antifungal microdilution broth MIC, AF
[2] = tested on: Pseudomonas aeruginosa CCM 3955, ATCC 27853; assay: Antibacterial microdilution broth MIC, PA; format: cell-based
[3] = tested on: Candida krusei CCM 8271, ATCC 6258; assay: Antifungal microdilution broth MIC, CK; conditions: Pichia kudriavzevii
[4] = tested on: Acinetobacter baumannii DSM 30007, ATCC 19606; assay: Antibacterial microdilution broth MIC, ACI; format: cell-based
[5] = tested on: Trichophyton interdigitale CCM 8377, ATCC 9533; assay: Antifungal microdilution broth MIC, TI; conditions: Trichophyton interdigitale
[6] = tested on: Mycolicibacterium aurum DSM 43999; assay: Antimycobacterial microdilution broth MIC (resazurin), M. aurum; format: cell-based; conditions: DSM43999, read-out: MIC M. aurum
[7] = tested on: Mycolicibacterium smegmatis DSM 43465; assay: Antimycobacterial microdilution broth MIC (resazurin), M. smegmatis; format: cell-based; conditions: DSM43465, read-out: MIC M. smegmatis
[8] = tested on: Candida tropicalis CCM 8264, ATCC 750; assay: Antifungal microdilution broth MIC, CT
[9] = tested on: Enterococcus faecalis CCM 4224, ATCC 29212; assay: Antibacterial microdilution broth MIC, EF; format: cell-based
[10] = tested on: Candida albicans CCM 8320, ATCC 24433; assay: Antifungal microdilution broth MIC, CA
[11] = tested on: Lichtheimia corymbifera CCM 8077; assay: Antifungal microdilution broth MIC, LC
[12] = tested on: Candida parapsilosis CCM 8260, ATCC 22019; assay: Antifungal microdilution broth MIC, CP; conditions: Lodderomyces parapsilosis
[13] = tested on: Aspergillus flavus CCM 8363; assay: Antifungal microdilution broth MIC, AFla
[14] = tested on: Staphylococcus aureus subsp. aureus CCM 4750, ATCC 43300 (MRSA); assay: Antibacterial microdilution broth MIC, MRSA; format: cell-based
[15] = tested on: HepG2 cell line; assay: Cytotoxicity CellTiter 96, HepG2; format: cell-based, human; conditions: Homo sapiens, HepG2, 24 h, 24 h incubation; ^c compound precipitated in the testing medium; ^d over the limit of tested concentrations
[16] = tested on: Staphylococcus epidermidis CCM 4418, ATCC 12228; assay: Antibacterial microdilution broth MIC, SE; format: cell-based
[17] = tested on: Escherichia coli CCM 3954, ATCC 25922; assay: Antibacterial microdilution broth MIC, EC; format: cell-based
[18] = tested on: Mycobacterium tuberculosis H37Ra; assay: Antimycobacterial microdilution broth MIC (resazurin), Mtb H37Ra; format: cell-based; conditions: Mycobacterium tuberculosis, H37RA
[19] = tested on: Klebsiella pneumoniae CCM 4415, ATCC 10031; assay: Antibacterial microdilution broth MIC, KP
[20] = tested on: Staphylococcus aureus CCM 4223, ATCC 29213; assay: Antibacterial microdilution broth MIC, SA; format: cell-based
[21] = ATCC204305, 24 h, read-out: MIC AF 24h
[22] = ATCC204305, 48 h, read-out: MIC AF 48h
[23] = CCM8077, 24 h, read-out: MIC LC 24h
[24] = CCM8077, 48 h, read-out: MIC LC 48h
[25] = CCM8363, 24 h, read-out: MIC AFla 24h
[26] = CCM8363, 48 h, read-out: MIC AFla 48h
[27] = Staphylococcus aureus, 24 h; read-out: MIC MRSA 24h
[28] = Staphylococcus aureus, 48 h; read-out: MIC MRSA 48h
[29] = Calculated from MIC (μg/mL), read-out: MIC Mtb H37Ra
[30] = Staphylococcus aureus, 24 h; read-out: MIC SA 24h
[31] = Staphylococcus aureus, 48 h; read-out: MIC SA 48h

| SMILES | MIC [1, 21] [µM] | MIC [1, 22] [µM] | MIC ([2]; 24 h, read-out: MIC PA 24h) [µM] | MIC ([2]; 48 h, read-out: MIC PA 48h) [µM] | MIC ([3]; 24 h, read-out: MIC CK 24h) [µM] | MIC ([3]; 48 h, read-out: MIC CK 48h) [µM] | MIC ([4]; 24 h, read-out: MIC ACI 24h) [µM] | MIC ([4]; 48 h, read-out: MIC ACI 48h) [µM] | MIC ([5]; 72 h, read-out: MIC TI 72h) [µM] | MIC ([5]; 120 h, read-out: MIC TI 120h) [µM] | MIC [6] [µg/mL] | MIC [7] [µg/mL] | MIC ([8]; 24 h, read-out: MIC CT 24h) [µM] | MIC ([8]; 48 h, read-out: MIC CT 48h) [µM] | MIC ([9]; 24 h, read-out: MIC EF 24h) [µM] | MIC ([9]; 48 h, read-out: MIC EF 48h) [µM] | MIC ([10]; 24 h, read-out: MIC CA 24h) [µM] | MIC ([10]; 48 h, read-out: MIC CA 48h) [µM] | MIC [11, 23] [µM] | MIC [11, 24] [µM] | also measured |
| --- | --- | --- | --- | --- | --- | --- | --- | --- | --- | --- | --- | --- | --- | --- | --- | --- | --- | --- | --- | --- | --- |
| O=C(Cc1ccc(F)cc1)Nc1ccccn1 [Compound 31] | > 500 | > 500 | > 500 | > 500 | 500 (≈ 115 µg/mL) | 500 (≈ 115 µg/mL) | > 500 | > 500 | > 500 | > 500 | 250 (≈ 1090 µM) | 62.5 (≈ 271 µM) | > 500 | > 500 | > 500 | > 500 | > 500 | > 500 | > 500 | > 500 | MIC ([12]; 24 h, read-out: MIC CP 24h): 500 µM (≈ 115 µg/mL); MIC ([12]; 48 h, read-out: MIC CP 48h): > 500 µM; MIC [13, 25]: > 500 µM; MIC [13, 26]: > 500 µM; MIC [14, 27]: > 500 µM; MIC [14, 28]: > 500 µM; IC50 [15]: 517 µM; MIC ([16]; 24 h, read-out: MIC SE 24h): 250 µM (≈ 57.6 µg/mL); MIC ([16]; 48 h, read-out: MIC SE 48h): > 500 µM; MIC ([17]; 24 h, read-out: MIC EC 24h): > 500 µM; MIC ([17]; 48 h, read-out: MIC EC 48h): > 500 µM; MIC [18, 29]: 543 µM; MIC ([18]; read-out: MIC Mtb H37Ra): 125 µg/mL; MIC KP 24h [19]: > 500 µM; MIC KP 48h [19]: > 500 µM; MIC [20, 30]: 500 µM (≈ 115 µg/mL); MIC [20, 31]: > 500 µM |
| COc1ccccc1CC(=O)Nc1ccc(Cl)cn1 [Compound 5] | > 500 | > 500 | > 500 | > 500 | > 500 | > 500 | > 500 | > 500 | 500 (≈ 138 µg/mL) | 500 (≈ 138 µg/mL) | > 500 | > 500 | > 500 | > 500 | > 500 | > 500 | > 500 | > 500 | > 500 | > 500 | MIC ([12]; 24 h, read-out: MIC CP 24h): > 500 µM; MIC ([12]; 48 h, read-out: MIC CP 48h): > 500 µM; MIC [13, 25]: > 500 µM; MIC [13, 26]: > 500 µM; MIC [14, 27]: > 500 µM; MIC [14, 28]: > 500 µM; IC50 [15]: > 250 µM; MIC ([16]; 24 h, read-out: MIC SE 24h): > 500 µM; MIC ([16]; 48 h, read-out: MIC SE 48h): > 500 µM; MIC ([17]; 24 h, read-out: MIC EC 24h): > 500 µM; MIC ([17]; 48 h, read-out: MIC EC 48h): > 500 µM; MIC [18, 29]: > 1800 µM; MIC ([18]; read-out: MIC Mtb H37Ra): > 500 µg/mL; MIC KP 24h [19]: > 500 µM; MIC KP 48h [19]: > 500 µM; MIC [20, 30]: > 500 µM; MIC [20, 31]: > 500 µM |
| O=C(Cc1ccc(F)cc1)Nc1ccc(Cl)cn1 [Compound 32] | > 500 | > 500 | > 500 | > 500 | > 500 | > 500 | > 500 | > 500 | > 500 | > 500 | 500 (≈ 1890 µM) | 62.5 (≈ 236 µM) | > 500 | > 500 | > 500 | > 500 | > 500 | > 500 | > 500 | > 500 | MIC ([12]; 24 h, read-out: MIC CP 24h): > 500 µM; MIC ([12]; 48 h, read-out: MIC CP 48h): > 500 µM; MIC [13, 25]: > 500 µM; MIC [13, 26]: > 500 µM; MIC [14, 27]: > 500 µM; MIC [14, 28]: > 500 µM; IC50 [15]: > 250 µM; MIC ([16]; 24 h, read-out: MIC SE 24h): 125 µM (≈ 33.1 µg/mL); MIC ([16]; 48 h, read-out: MIC SE 48h): 125 µM (≈ 33.1 µg/mL); MIC ([17]; 24 h, read-out: MIC EC 24h): > 500 µM; MIC ([17]; 48 h, read-out: MIC EC 48h): > 500 µM; MIC ([18]; read-out: MIC Mtb H37Ra (μM)): 59 µM; MIC ([18]; read-out: MIC Mtb H37Ra (μg/mL)): 15.6 µg/mL; MIC KP 24h [19]: > 500 µM; MIC KP 48h [19]: > 500 µM; MIC [20, 30]: > 500 µM; MIC [20, 31]: > 500 µM |
| COc1cccc(CC(=O)Nc2ccccn2)c1 [Compound 7, 2-(3-methoxyphenyl)-N-(pyridin-2-yl)acetamide] | > 125 | > 125 | > 125 | > 125 | > 125 | > 125 | > 125 | > 125 | > 125 | > 125 | 250 (≈ 1030 µM) | 250 (≈ 1030 µM) | > 125 | > 125 | > 125 | > 125 | > 125 | > 125 | > 125 | > 125 | MIC ([12]; 24 h, read-out: MIC CP 24h): > 125 µM; MIC ([12]; 48 h, read-out: MIC CP 48h): > 125 µM; MIC [13, 25]: > 125 µM; MIC [13, 26]: > 125 µM; MIC ([14]; Staphylococcus aureus, 24 h, read-out: MIC MRSA 24h): > 125 µM; MIC ([14]; Staphylococcus aureus, 48 h, read-out: MIC MRSA 48h): > 125 µM; IC50 [15]: > 500 µM; MIC ([16]; 24 h, read-out: MIC SE 24h): > 125 µM; MIC ([16]; 48 h, read-out: MIC SE 48h): > 125 µM; MIC ([17]; 24 h, read-out: MIC EC 24h): > 125 µM; MIC ([17]; 48 h, read-out: MIC EC 48h): > 125 µM; MIC [18, 29]: 516 µM; MIC ([18]; read-out: MIC Mtb H37Ra): 125 µg/mL; MIC KP 24h [19]: > 125 µM; MIC KP 48h [19]: > 125 µM; MIC ([20]; Staphylococcus aureus, 24 h, read-out: MIC SA 24h): 125 µM (≈ 30.3 µg/mL); MIC ([20]; Staphylococcus aureus, 48 h, read-out: MIC SA 48h): 125 µM (≈ 30.3 µg/mL) |
